In ChEMBL document CHEMBL6083271 (J Med Chem, 2024):
The source made the active and inactive calls. The rule behind the calls is not given here.

Tests used:
MOLM-14 = test: Antiproliferative activity against human MOLM-14 cells assessed as inhibition of cell growth measured after 4 days by WST-8 assay; assay type: functional, cell-based; details: MOLM-14, 96 h
SIG-M5 = test: Antiproliferative activity against human SIG-M5 cells assessed as inhibition of cell growth measured after 4 days by WST-8 assay; assay type: functional, cell-based; details: SIG-M5, 96 h
OCI-AML-5 = test: Antiproliferative activity against human OCI-AML5 cells assessed as inhibition of cell growth measured after 4 days by WST-8 assay; assay type: functional, cell-based; details: OCI-AML-5, 96 h
RS4-11 [1] = test: Antiproliferative activity against human RS4;11 cells assessed as inhibition of cell growth measured after 4 days by WST-8 assay; assay type: functional, cell-based; details: RS4-11, 96 h
RS4-11 [2] = test: Antiproliferative activity against human RS4;11 cells harbouring p53 mutant assessed as inhibition of cell growth measured after 4 days by WST-8 assay; assay type: functional, cell-based; details: RS4-11, 96 h
OCI-AML-3 = test: Antiproliferative activity against human OCI-AML-3 cells assessed as inhibition of cell growth measured after 4 days by WST-8 assay; assay type: functional, cell-based; details: OCI-AML-3, 96 h
MOLM-13 = test: Antiproliferative activity against human MOLM-13 cells assessed as inhibition of cell growth measured after 4 days by WST-8 assay; assay type: functional, cell-based; details: MOLM-13, 96 h
RS4-11 [3] = test: Antiproliferative activity against human RS4;11 cells harbouring p53 wild type assessed as inhibition of cell growth measured after 4 days by WST-8 assay; assay type: functional, cell-based; details: RS4-11, 96 h
OCI-AML2 = test: Antiproliferative activity against human OCI-AML2 cells assessed as inhibition of cell growth measured after 4 days by WST-8 assay; assay type: functional, cell-based; details: OCI-AML2, 96 h
RS4-11 [4] = test: Antitumor activity against human RS4;11 cells xenografted in SCID mouse model assessed as tumor regression at 50 mg/kg, iv qd administered every other for 2 weeks and measured upto 30 days by caliper method relative to control; assay type: functional; details: time <= 30 day
MV4-11 [5] = test: Antiproliferative activity against human MV4-11 cells assessed as inhibition of cell growth measured after 4 days by WST-8 assay; assay type: functional, cell-based; details: MV4-11, 96 h
ML-2 = test: Antiproliferative activity against human ML-2 cells assessed as inhibition of cell growth measured after 4 days by WST-8 assay; assay type: functional, cell-based; details: ML-2, 96 h
[6] = Toxicity in female NOD-SCID mouse assessed as effect on body weight at 50 mg/kg, iv qd; assay type: organism-based; details: in vivo
RS4-11 [7] = test: Antitumor activity against human RS4;11 cells xenografted in SCID mouse model assessed as tumor regression at 50 mg/kg, iv qd administered every other for 2 weeks by caliper method relative to control; assay type: functional
RS4-11 [8] = test: Antitumor activity against human RS4;11 cells xenografted in female NOD-SCID mouse model assessed as tumor regression at 50 mg/kg, iv administered every other day for 2 weeks by vernier method relative to control; assay type: functional
RS4-11 [9] = test: Antitumor activity against human RS4;11 cells xenografted in female NOD-SCID mouse model assessed as reduction in tumor size at 25 mg/kg, iv administered every other day for 2 weeks by vernier method relative to control; assay type: functional; design: scale not given: the % may be the effect or the level left
RS4-11 [10] = test: Antitumor activity against human RS4;11 cells xenografted in female NOD-SCID mouse model assessed as tumor regression at 25 mg/kg, iv measured upto 34 days by vernier method relative to control; assay type: functional; details: time <= 34 day
MV4-11 [11] = test: Antiproliferative activity against human MV4-11 cells assessed as inhibition of cell growth measured after 4 days in presence of lenalidomide by WST-8 assay; assay type: functional, cell-based; details: time 4.0 day
MV4-11 [12] = test: Upregulation of p53 level in human MV4-11 cells at 1 to 3 nM measured after 2 hrs by Western blot analysis; assay type: functional, cell-based; details: dose 1-3 nM
RS4-11 [13] = test: Antiproliferative activity against human RS4;11 cells assessed as inhibition of cell growth measured after 4 days in presence of lenalidomide by WST-8 assay; assay type: functional, cell-based; details: time 4.0 day
[14] = Upregulation of PUMA mRNA level in human RS4;11 cells assessed as fold change at 10 nM measured after 3 hrs by qRT-PCR analysis; assay type: functional
[15] = Clearance in mouse at 10 mg/kg, iv; assay type: ADME, organism-based; details: in vivo
[16] = Half life in mouse at 10 mg/kg, iv; assay type: ADME, organism-based; details: in vivo
[17] = Upregulation of p21 mRNA level in human RS4;11 cells assessed as fold change at 10 nM measured after 3 hrs by qRT-PCR analysis; assay type: functional
RS4-11 [18] = test: Downregulation of MDM2 level in human RS4;11 cells at 1 nM measured after 2 hrs by Western blot analysis; assay type: functional, cell-based
[19] = Half life in dog at 2.5 mg/kg, iv; assay type: ADME, organism-based, Canis lupus familiaris; details: in vivo
RS4-11 [20] = test: Effect of p53 mRNA level in human RS4;11 cells at 10 nM by qRT-PCR analysis; assay type: functional, cell-based
RS4-11 [21] = test: Upregulation of p53 protein level in human RS4;11 cells at 3 nM measured after 2 hrs in presence of lenalidomide by Western blot analysis; assay type: functional, cell-based
[22] = Volume of distribution at steady state in mouse at 10 mg/kg, iv; assay type: ADME, organism-based; details: in vivo, read-out: Vdss
[23] = Clearance in dog at 2.5 mg/kg, iv; assay type: ADME, organism-based, Canis lupus familiaris; details: in vivo
[24] = Toxicity in female NOD-SCID mouse assessed as effect on body weight at 25 mg/kg, iv qd; assay type: organism-based; details: in vivo
[25] = Volume of distribution at steady state in rat at 5 mg/kg, iv; assay type: ADME, organism-based; details: in vivo, read-out: Vdss
[26] = Upregulation of MDM2 mRNA level in human RS4;11 cells assessed as fold change at 10 nM measured after 3 hrs by qRT-PCR analysis; assay type: functional
[27] = Volume of distribution at steady state in dog at 2.5 mg/kg, iv; assay type: ADME, organism-based, Canis lupus familiaris; details: in vivo, read-out: Vdss
[28] = Clearance in rat at 5 mg/kg, iv; assay type: ADME, organism-based; details: in vivo
[29] = Half life in rat at 5 mg/kg, iv; assay type: ADME, organism-based; details: in vivo
RS4-11 [30] = test: Downregulation of MDM2 protein level in human RS4;11 cells at 3 nM measured after 2 hrs in presence of lenalidomide by Western blot analysis; assay type: functional, cell-based
MV4-11 [31] = test: Upregulation of p53 protein level in human MV4-11 cells at 3 nM measured after 2 hrs in presence of lenalidomide by Western blot analysis; assay type: functional, cell-based
[32] = AUC (0 to t) in dog at 2.5 mg/kg, iv; assay type: ADME, organism-based, Canis lupus familiaris; details: in vivo
[33] = AUC (0 to t) in mouse at 10 mg/kg, iv; assay type: ADME, organism-based; details: in vivo
[34] = Upregulation of PUMA mRNA level in human MV4-11 cells assessed as fold increase at 30 nM by qRT-PCR analysis; assay type: functional
MV4-11 [35] = test: Downregulation of MDM2 protein level in human MV4-11 cells at 3 nM measured after 2 hrs in presence of lenalidomide by Western blot analysis; assay type: functional, cell-based
RS4-11 [36] = test: Antitumor activity against human RS4;11 cells xenografted in female NOD-SCID mouse model assessed as median survival time at 25 mg/kg, iv qw (reference value: 47.5 days); assay type: functional
[37] = AUC (0 to t) in rat at 5 mg/kg, iv; assay type: ADME, organism-based; details: in vivo
MV4-11 [38] = test: Effect on p53 mRNA level in human MV4-11 cells at 30 nM by qRT-PCR analysis; assay type: functional, cell-based
[39] = Upregulation of p21 mRNA level in human MV4-11 cells assessed as fold increase at 30 nM by qRT-PCR analysis; assay type: functional
RS4-11 [40] = test: Antitumor activity against human RS4;11 cells xenografted in female NOD-SCID mouse model assessed as tumor regression at 25 mg/kg, iv administered every other day for 2 weeks by vernier method relative to control; assay type: functional
RS4-11 [41] = test: Antitumor activity against human RS4;11 cells xenografted in female NOD-SCID mouse model assessed as median survival time at 50 mg/kg, iv qw (reference value: 47.5 days); assay type: functional
RS4-11 [42] = test: Upregulation of p53 level in human RS4;11 cells harbouring wild type p53 at 1 to 3 nM measured after 2 hrs by Western blot analysis; assay type: functional, cell-based; details: dose 1-3 nM
MV4-11 [43] = test: Downregulation of MDM2 level in human MV4-11 cells at 3 to 30 nM measured after 2 hrs by Western blot analysis; assay type: functional, cell-based; details: dose 3-30 nM

SMILES: O=C1CCC(N2Cc3c(C#CC4CCN(C(=O)c5ccc(NC(=O)[C@@H]6NC7(CCCCC7)[C@@]7(C(=O)Nc8cc(Cl)ccc87)[C@H]6c6cccc(Cl)c6F)cc5)CC4)cccc3C2=O)C(=O)N1 (stereo partly drawn)
- IC50 (MOLM-14): 76 nM
- IC50 (SIG-M5): 103 nM
- IC50 (OCI-AML-5): 148 nM
- IC50 (RS4-11 [1]): 3 nM
- IC50 (RS4-11 [2]): 50 nM
- IC50 (OCI-AML-3): 7750 nM
- IC50 (MOLM-13): 37 nM
- IC50 (RS4-11 [3]): 4 nM
- IC50 (OCI-AML2): 113 nM
- Activity (RS4-11 [4]): 100%
- IC50 (MV4-11 [5]): 14 nM
- IC50 (ML-2): 11 nM

SMILES: O=C1CCC(N2Cc3c(C#CCCCNC(=O)c4ccc(NC(=O)[C@@H]5NC6(CCCCC6)[C@@]6(C(=O)Nc7cc(Cl)ccc76)[C@H]5c5cccc(Cl)c5F)cc4)cccc3C2=O)C(=O)N1 (stereo partly drawn)
- Activity [6]: Non-toxic
- IC50 (RS4-11 [1]): 2 nM
- IC50 (RS4-11 [2]): > 1000 nM
- IC50 (RS4-11 [3]): 4 nM
- Activity (RS4-11 [7]): 100%
- Activity (RS4-11 [8]): 100%
- IC50 (MV4-11 [5]): 7 nM

SMILES: O=C1CCC(N2Cc3c(C#CC4CCN(C(=O)[C@H]5CC[C@H](NC(=O)[C@@H]6NC7(CCCCC7)[C@@]7(C(=O)Nc8cc(Cl)ccc87)[C@H]6c6cccc(Cl)c6F)CC5)CC4)cccc3C2=O)C(=O)N1 (stereo partly drawn)
- Activity (RS4-11 [9]): >70%
- IC50 (MOLM-14): 7.6 nM
- Activity (RS4-11 [10]): 100%
- IC50 (SIG-M5): 20 nM
- Activity (MV4-11 [11]): inactive
- Activity (MV4-11 [12]): Active
- Activity (RS4-11 [13]): inactive
- IC50 (OCI-AML-5): 23 nM
- IC50 (RS4-11 [1]): 0.7 nM
- fold change (FC) [14]: 8
- clearance [15]: 1.1 mL/min/kg
- half-life [16]: 6.1 h
- IC50 (OCI-AML-3): 212 nM
- fold change (FC) [17]: 8
- IC50 (MOLM-13): 5.7 nM
- Activity (RS4-11 [18]): Active
- half-life [19]: 6.3 h
- Activity (RS4-11 [20]): inactive
- Activity (RS4-11 [21]): inactive
- Vd [22]: 0.54 L/kg
- clearance [23]: 7.4 mL/min/kg
- Activity [24]: Non-toxic
- Vd [25]: 0.15 L/kg
- fold change (FC) [26]: 8
- Vd [27]: 0.93 L/kg
- IC50 (OCI-AML2): 24 nM
- clearance [28]: 3.2 mL/min/kg
- half-life [29]: 5.6 h
- Activity (RS4-11 [30]): inactive
- Activity (MV4-11 [31]): inactive
- AUC(0-t) [32]: 5500 ng·h/mL
- AUC(0-t) [33]: 156000 ng·h/mL
- fold change (FC) [34]: 3
- Activity (MV4-11 [35]): inactive
- MST (RS4-11 [36]): 78.5 days
- AUC(0-t) [37]: 13000 ng·h/mL
- Activity (MV4-11 [38]): inactive
- fold change (FC) [39]: 10
- Activity (RS4-11 [40]): 100%
- MST (RS4-11 [41]): 72 days
- Activity (RS4-11 [42]): Active
- Activity (MV4-11 [43]): Active
- IC50 (MV4-11 [5]): 2 nM
- IC50 (ML-2): 1.2 nM
